# Experiments:
# [1] = system: inflammatory mediator release; test: reverse passive Arthus pleurisy assay, inflammatory mediator release; assay type: in vivo, rat; settings: for ED50 LTB4: 10 min; for % Inh LTB4: 10 mg/kg p.o.; for ED50: Rattus norvegicus, po, read-out: ED50 TxB2
# Method: The compounds of the invention are further tested in the reverse passive Arthus pleurisy assay to evaluate their effectiveness in inflammatory mediator release and/or the fluid and cellular phases of an inflammatory response.
# A reverse passive Arthus reaction is induced in the pleural cavity of male Lewis rats (150-200 g; fasted overnight prior to use) by the intravenous administration of bovine serum albumin (BSA; 4 mg/0.2 ml) followed 30 minutes later by the injection of rabbit anti-BSA (1 mg/0.2 ml; lyophilized IgG fraction; Organon Teknika, West Chester, PA) into the right pleural space under halothane anesthesia. […] Animals are sacrificed at either the time of peak eicosanoid production (i.e. 5 minutes after anti-BSA for immunoreactive TxB2, 10 minutes for immunoreactive LTB4, 20 minutes for immunoreactive LTC4) or at the time of peak neutrophil infiltration (4 hours after anti-BSA) by CO2 inhalation. The pleural cavity is then exposed, the fluid exudate removed by gentle vacuum aspiration and the volume of exudate is recorded. For the determination of cellular infiltration, the pleural cavity is rinsed with 3 ml of 0.1% EDTA in sterile saline, and the recovered wash is pooled with the exudate. Cell number is determined on a model ZBI Coulter counter. For determination of eicosanoid production, undiluted pleural exudate is microfuged and the supernatant is extracted with ethanol (8-10 times volume). Extracts are either stored at -20° C., or are evaporated to dryness under a stream of N2 and reconstituted in radioimmunoassay (RIA) buffer.
# Eicosanoids are quantitated by RIA according to the procedure specified by the RIA kit manufacturer (Advanced Magnetics, Cambridge, MA). Briefly, 100 μl of ^3 H-labeled eicosanoid and 100 μl of specific antibody are sequentially added to 100 μl of extracted pleural exudate in BGG-phosphate buffer which contains 0.01 M phosphate, 0.1% bovine gamma globulin and 0.1% sodium azide at pH 7.0. Antibody-bound eicosanoid is separated form unbound eicosanoid by the addition of 750 μl of dextran (0.4%)-coated charcoal (0.4% Norit A) containing 0.1% sodium azide. The mixture is centrifuged at 2000 RPM at 5° C. for 15 minutes to pellet the charcoal and adsorbed unbound eicosanoid. Antibody-bound labeled eicosanoid is quantitated by counting in a liquid scintillation counter, and is correlated to concentration by a standard curve.
# Inflammatory cells are expressed as 10^6 cells/ml, pleural exudate is expressed as ml of fluid, and the amount of eicosanoids in the pleural cavity is expressed as ng/ml of exudate. Mean±S.E.M. is determined for each group. Percent inhibition (% I) of cell number, exudate volume and eicosanoid production is calculated for vehicle-treated control groups, and the responses in drug-treated rats are then expressed as the mean $ I of control.
# 5-lipoxygenase [2] = biological target: T1, 5-lipoxygenase (Rattus norvegicus, UniProt P12527); test: inhibition of 5-HETE synthesis by rat glycogen elicited polymorphonuclear leukocytes; assay type: cell-based; settings: rat PMN; for inhibition at 10 µM: negative = potentiation of 5-HETE synthesis, read-out: % Inhibition of 5-LO (as 5-HETE)
# T1 construct: Peritoneal PMN are obtained from female Wistar rats (150-250 g); endogenous in cells; host or cells: rat glycogen-elicited peritoneal polymorphonuclear leukocytes, intact
# T1 sequence (P12527 1-673): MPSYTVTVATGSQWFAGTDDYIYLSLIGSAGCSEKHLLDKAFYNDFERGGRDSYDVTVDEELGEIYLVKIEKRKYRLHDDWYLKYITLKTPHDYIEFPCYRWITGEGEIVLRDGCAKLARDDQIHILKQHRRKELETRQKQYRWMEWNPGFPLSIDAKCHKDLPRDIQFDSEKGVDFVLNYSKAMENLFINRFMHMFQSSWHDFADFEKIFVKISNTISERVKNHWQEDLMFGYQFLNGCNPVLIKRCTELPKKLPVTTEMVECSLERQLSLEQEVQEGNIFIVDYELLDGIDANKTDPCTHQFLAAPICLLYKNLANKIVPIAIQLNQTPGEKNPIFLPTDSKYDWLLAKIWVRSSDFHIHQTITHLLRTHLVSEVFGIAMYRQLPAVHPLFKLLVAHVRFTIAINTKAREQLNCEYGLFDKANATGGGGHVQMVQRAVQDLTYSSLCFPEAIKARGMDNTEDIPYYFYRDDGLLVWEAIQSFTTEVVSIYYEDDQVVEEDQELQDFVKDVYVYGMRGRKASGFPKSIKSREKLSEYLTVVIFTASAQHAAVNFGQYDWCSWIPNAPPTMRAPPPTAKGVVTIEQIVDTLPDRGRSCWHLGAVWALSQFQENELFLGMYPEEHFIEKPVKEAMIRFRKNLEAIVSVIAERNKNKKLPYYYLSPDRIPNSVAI
# Method: The assay of this Example measures the ability of the compounds of the invention to inhibit the synthesis of 5-HETE by rat glycogen elicited polymorphonuclear leukocytes.
# (§1) Peritoneal PMN are obtained from female Wistar rats (150-250 g) that received an i.p. injection of 6% glycogen (10 ml). After 24 hours, rats are killed by CO2 asphysiation and peritoneal cells are harvested by peritoneal lavage using Ca^++ and MG^++ free Hanks' balanced salt solution (HBSS). The peritoneal exudate is centrifuged at 400 g for 10 minutes. After centrifugation, the lavaged fluid is removed and the cell pellet is resuspended in HBSS containing Ca^++ and MG^++ and 10 mM L-cysteine at a concentration of 2×10^7 cells/ml. To 1 ml portions of cell suspension, test drugs or vehicle are added and incubated at 37° C. for 10 minutes. Following this preincubation, the calcium ionophore (10 μM), a23187, is added together with 0.5 μM [14 C] arachidonic acid and further incubated for 10 minutes. The reaction is stopped by the addition of ice cold water (3 ml) and acidifying to pH 3.5. Lipoxygenase products are then extracted twice into diethyl ether. The pooled ether extracts are evaporated to dryness under nitrogen and the residue is redissolved in a small volume of methanol and spotted on aluminum backed pre-coated thin layer chromatographic plates. The samples are then cochromatographed with authentic reference 5-HETE in the solvent system - hexane: ether: acetic acid (50:50:3). After chromatography, the areas associated with 5-HETE standard are identified by autoradiography, cut out and quantitated by liquid scintillation.
# cyclooxygenase = test: inhibition of synthesis of cyclooxygenase products TxB2 and PGE2 (rat polymorphonuclear leukocytes); assay type: cell-based; settings: rat PMN; for % Inhibition of CO (as PGE2): 10 μM, negative = potentiation of PGE2 synthesis
# Method: as §1
# However, in order to determine cyclooxygenase activity, the samples are cochromatographed with authentic reference TxB2 and PGE2 in the solvent system ethyl acetate: formic acid (80:1) and the upper phase of ethyl acetate: isooctane: acetic acid: water (110:50:20:100). After chromatography, the areas associated with the TxB2 and PGE2 standards are identified by autoradiography, cut out and quantitated by liquid scintillation techniques.
# 5-lipoxygenase [3] = biological target: T2, 5-lipoxygenase (Homo sapiens, UniProt P09917); test: inhibition of 5-lipoxygenase in human whole blood (LTB4); assay type: cell-based; settings: human whole blood
# T2 construct: Blood is obtained in 50-100 ml quantities from male donors; endogenous in cells; host or cells: human whole blood (leukocytes) from male donors
# T2 sequence (P09917 1-674): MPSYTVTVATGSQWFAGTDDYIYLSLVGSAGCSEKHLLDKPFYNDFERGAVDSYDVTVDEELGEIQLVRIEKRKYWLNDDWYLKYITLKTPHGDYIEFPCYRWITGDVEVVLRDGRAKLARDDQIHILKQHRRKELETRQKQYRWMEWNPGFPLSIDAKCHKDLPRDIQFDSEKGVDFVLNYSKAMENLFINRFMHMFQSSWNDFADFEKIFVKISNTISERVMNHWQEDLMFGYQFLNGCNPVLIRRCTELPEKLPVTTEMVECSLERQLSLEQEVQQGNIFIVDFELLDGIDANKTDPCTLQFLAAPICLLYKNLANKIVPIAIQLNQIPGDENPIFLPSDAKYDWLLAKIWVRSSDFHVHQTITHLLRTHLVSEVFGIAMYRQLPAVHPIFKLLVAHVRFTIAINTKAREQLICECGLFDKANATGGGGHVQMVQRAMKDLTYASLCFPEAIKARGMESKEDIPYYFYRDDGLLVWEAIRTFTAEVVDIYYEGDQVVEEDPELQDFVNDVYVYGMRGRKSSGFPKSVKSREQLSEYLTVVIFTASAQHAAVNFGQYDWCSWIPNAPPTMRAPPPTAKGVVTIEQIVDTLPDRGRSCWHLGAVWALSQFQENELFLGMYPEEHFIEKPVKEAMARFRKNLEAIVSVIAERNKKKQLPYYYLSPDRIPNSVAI
# Method: The assay of this Example measures the ability of the compounds tested to inhibit 5-lipxygenase in human whole blood.
# Blood is obtained in 50-100 ml quantities from male donors. White blood cell counts and differentials are made. Two ml of blood are placed in a 15 ml polypropylene test tube. Compounds are solubilized in dimethylsulfoxide and diluted 1:10 in 10% bovine serum albumin in phosphate buffered saline, pH 7.4 resulting in a final dimethylsulfoxide concentration of 0.1% in the blood. Then, compounds are added to the blood in a shaking water bath at 37° C. for 10 minutes prior to the addition of 30 μM calcium ionophore (A23187; Sigma). After ionophore administration, whole blood samples are mixed and incubated for 20 minutes at 37° C. in a shaking water bath. Incubation is terminated by placing samples in an ice bath and immediately adding ethylene glycol-bis-(β-aminoethyl ether)-N,N,N',N'-tetraacetic acid (10 mM). Samples are mixed and centrifuged at 1200×g for 15 minutes at 4° C. Preparation of samples for evaluation by RIA or ELISA is carried out by the following protocol. Plasma is removed from sample tubes, placed in 15 ml polypropylene test tubes containing 8 ml methanol, and then vortexed to precipitate protein. Samples are stored at -70° C. overnight. The next day, samples are centrifuged at 200×g for 15 minutes at 4° C. to pellet the precipitate. Samples are dried in a Savant speed vac concentrator, reconstituted to original volume with ice cold RIA or ELISA buffer, and stored at -70° C. until assayed. The assay for eicosanoids (LTB4, TxB2, and PGE2) is performed as described by the manufacturer of the [^3 H]-RIA kit or ELISA kit (LTB4 -Amersham, TxB2 and PGE2 - Caymen Chemical).
# The total eicosanoid level in 2 ml of blood is calculated and reported as ng/10^6 neutrophils. Significance is determined by a one-way analysis of variance with least significant difference (LSD) comparisons to control (p≤0.05) and IC50 's (μM) are determined by regression analysis (Finney, 1978). Drug effects are expressed as percent change form control values.
# Compounds tested in vitro are solubilized in dimethylsulfoxide and diluted 1:10 in 10% bovine serum albumin in phosphate buffer saline resulting in a final dimethylsulfoxide concentration of 0.1% in the blood.
# [4] = p.o., 1 hour prior to anti-BSA, rat
smiles,measurement,setting,value
CN=C1CCN(c2cccc(C(F)(F)F)c2)N1 [BW540C],ED50 TxB2,"[1]; p.o., 1 hour prior to anti-BSA, rat, 5 min",19 mg/kg
same,ED50 LTB4,[1]; [4],30 mg/kg
O=C(O)Cc1ccccc1Nc1c(Cl)cccc1Cl [Diclofenac],% Inh LTB4,[1]; rat,0%
same,ED50,[1]; 5 min,6 mg/kg
"CC(C)(C(=O)O)c1ccc2cc(OCc3ccc4ccccc4n3)ccc2c1 [Example 22, α,α-Dimethyl-6-(2-quinolinylmethoxy)-2-naphthaleneacetic acid]",inhibition at 10 µM,5-lipoxygenase [2],87%
same,% Inhibition of CO (as PGE2),cyclooxygenase,-28%
"CC(C(=O)N(C)O)c1ccc2cc(OCc3ccc4ccccc4n3)ccc2c1 (stereo not drawn) [Example 23, N-Hydroxy-α-N-dimethyl-6-(2-quinolinylmethoxy)-2-naphthaleneacetamidedihydrate]",inhibition at 10 µM,5-lipoxygenase [2],75%
same,% Inhibition of CO (as PGE2),cyclooxygenase,17%
same,inhibition at 5 µM,"5-lipoxygenase [3]; 5 μM, read-out: % Inhibition of LTB4",45%
"Cc1ccc(S(=O)(=O)NC(=O)C(C)c2ccc3cc(OCc4ccc5ccccc5n4)ccc3c2)cc1 (stereo not drawn) [Example 25, α-Methyl-N-[(4-methylphenyl)sulfonyl]-6-(2-quinolinylmethoxy)-2-naphthaleneacetamide]",inhibition at 10 µM,5-lipoxygenase [2],100%
same,% Inhibition of CO (as PGE2),cyclooxygenase,-103%
same,inhibition at 25 µM,5-lipoxygenase [3]; 25 μM,45%
"C[C@H](CO)c1ccc2cc(OCc3ccc4ccccc4n3)ccc2c1 [Example 26, (S)-β-methyl-6-(2-quinolinylmethoxy)-2-naphthalene ethanol]",inhibition at 10 µM,5-lipoxygenase [2],97%
same,% Inhibition of CO (as PGE2),cyclooxygenase,5%
same,inhibition at 100 µM,5-lipoxygenase [3]; 100 μM,8%
"C[C@H](C=O)c1ccc2cc(OCc3ccc4ccccc4n3)ccc2c1 [Example 27, (S)-α-methyl-6-(2-quinolinylmethoxy)-2-naphthaleneacetaldehyde]",inhibition at 10 µM,5-lipoxygenase [2],100%
same,% Inhibition of CO (as PGE2),cyclooxygenase,-62%
"COC(=O)C(C)c1ccc2cc(OCc3ccc4ccccc4n3)ccc2c1 (stereo not drawn) [Example 28, α-Methyl-6-(2-quinolinylmethoxy)-2-naphthaleneacetic acid methyl ester]",IC50,"5-lipoxygenase [2]; read-out: IC50 (inhibition of 5-LO, as 5-HETE)",430 nM
same,IC50,"cyclooxygenase; read-out: IC50 (inhibition of CO, as PGE2)",> 10000 nM
"COC(=O)[C@@H](C)c1ccc2cc(OCc3ccc4ccccc4n3)ccc2c1 [Example 29, (S)α-methyl-6-(2-quinolinylmethoxy)-2-naphthaleneacetic acid methyl ester]",inhibition at 10 µM,5-lipoxygenase [2],91%
same,% Inhibition of CO (as PGE2),cyclooxygenase,-17%
same,inhibition at 50 µM,5-lipoxygenase [3],24%
"CONC(=O)C(C)c1ccc2cc(OCc3ccc4ccccc4n3)ccc2c1 (stereo not drawn) [Example 30, N-methoxy-α-methyl-6-(2-quinolinylmethoxy)-2-naphthaleneacetamide]",inhibition at 10 µM,5-lipoxygenase [2],92%
same,% Inhibition of CO (as PGE2),cyclooxygenase,-27%
same,inhibition at 50 µM,5-lipoxygenase [3],13%
CC(C(=O)O)c1cccc(C(=O)c2ccccc2)c1 (centres unmarked) [Ketoprofen],% Inh LTB4,[1]; rat,35%
same,ED50,[1]; 5 min,0.18 mg/kg
"C[C@H](C(=O)O)c1ccc2cc(OCc3ccc4ccccc4n3)ccc2c1.NC(CO)(CO)CO [Wy-50,295-A]",% Inh TxB2,"[1]; 75 mg/kg p.o., rat",0%
same,ED50 LTB4,[1]; [4],15 mg/kg

# From US5208344A, “Naphthalenepropionic acid derivatives as anti-inflammatory/antiallergic agents” (American Home Products Corporation, priority 1991, dated 1993)
